Reference: patent US11236049B2, “Amorphous and crystalline forms of IDO inhibitors” (BRISTOL-MYERS SQUIBB COMPANY, priority 2017, dated 2022)
Values joined by “and” are separate entries in the source; they are usually repeats but may differ in a detail not shown here. Equal values may be shown once. Read-outs that look alike come from different tables or passages of the source.

What was measured:
[1] = pH solubility of Compound 1 MSA Salt Form 1; type: physicochemical
Protocol: Measurements were taken using an Orion ATI Model 370 pH meter. […] To each vial was added 5 mL of various aqueous acidic and basic solutions. Each vial was stoppered and vortexed and sonicated to mix well. The pH of each sample was recorded. […] After 24 hours of stirring, the pH of each sample (as a suspension) was recorded. Suspensions were filtered with 0.2 micron Acrodisc syringe filters. The clear filtrates were collected and vortexed to mix well pH of each filtrated was recorded. pH of suspension and filtrate were nearly identical. A 1.0 mL aliquot of each of the filtrates 25-fold using 50% acetonitrile/50% Milli-Q water, q.w. each flask to 25 mL. […] Samples were assayed using the following HPLC method: Column: […] Mobile phase Solvent A: Water w/0.05% TFA • Solvent B: Acetonitrile w/0.05% TFA […] Column temperature: Ambient RT Detector Wavelength: 250 nm […] Working Concentration: […] Added 20 mL of 100% acetonitrile to the vial. Stoppered, vortexed, and sonicated the vial. […] Transferred the suspension to a 250 mL glass volumetric flask, and washed out the glass vial with 4×20 mL 50% acetonitrile/50% Milli-Q water, transferring each wash into the volumetric flask. All solids dissolved. Q.S. the volumetric flask to 250 mL final volume using 50% acetonitrile/50% Milli Q water, shake to give standard solution at 101.5 mcg/mL.

[2] = Jet milling: milled physical properties; type: physicochemical
Excerpt: Particle size reduction can be achieved by jet milling using a 0202 Jet o Mizer loop Mill. Particle collisions are enabled by nitrogen gas supplied at high pressure to the milling chamber via two grinding nozzles. The feed rate of the drug substance into the mill is controlled by a feeder that supplies drug substance into the feed hopper of the mill at a visually consistent feed rate. High pressure nitrogen gas is supplied through the venturi nozzle to inject drug substance from the mill feed hopper into the milling chamber, and this is referred to as the venture pressure. The grinding and venturi pressures are adjusted to the desired level before the start of milling, and both are kept at the same level unless product blow back from the feed hopper is observed. The venturi pressure is typically adjusted to 10 PSI above the grinding pressure. The micronized drug substance exits via the mill chamber outlet to be collected in the product collection unit consisting of a combined cyclone and porous fabric filter media assembly. Milling parameters may be adjusted based on sample analysis. Particle sizes that range between 12.7 μm and 24.0 μm (D90 by laser-light scattering) are achieved from the milling operation.

[3] = for AUC (Mean) / Dissolution Rate (Mean): 150 mg in 250 mL (0.60 mg/mL API equivalent), 37° C.
Protocol: Microdissolution Microdissolution experiments were conducted in a pIon μDiss Profiler microdissolution instrument (pION μDiss Profiler) with a fiber optic UV monitoring system, as follows: Probes: 2.5 mm probes (5 mm path length) Volume: 15 ml Stirring: 150 rpm Temperature: 37° C. […] The target doses were 150 mg in 250 mL (0.60 mg/mL API equivalent) in FaSSIF (pH 6.5) and FeSSIF (pH 5).

[4] = in vivo
[5] = type: physicochemical
Protocol: Stability Testing Chromatographic Conditions: VHPLC Parameters VHPLC System: Waters AcQuity BSM or […] system equipped with a Waters UV/Vis Detector Column: Ascentis Express C18, 150 mm×2.1 mm i.d., 2.7 um particle size. Detector Wavelength: 218 nm VHPLC detector time constrat: normal VHPLC sampling rate: 20 Hz […] Flow Rate: 0.5 mL/min Injection volume 1 uL Column temperature: 30° C. Run time: 14 minutes Sample temperature: 5° C. Mobile Phase A: water:acetonitrile:TFA (95:5:0.05) Mobile Phase B: water: acetonitrile:TFA (5:95:0.05) [table] […] The study consisted of one batch of drug substance packaged in double LDPE bags, placed in a 0.6 L HDPE paid with a lid and gasket.

[6] = No. 1 Long Term, 5° C., 1 month
[7] = No. 1 Long Term, 5° C., 3 months
[8] = No. 1 Long Term, 5° C., 6 months
[9] = No. 1 Long Term, 5° C., 12 months
[10] = No. 2 Long Term, 25° C./60% RH, 1 month
[11] = No. 2 Long Term, 25° C./60% RH, 3 months
[12] = No. 2 Long Term, 25° C./60% RH, 6 months
[13] = No. 2 Long Term, 25° C./60% RH, 12 months
[14] = No. 3 Accelerated, 40° C./75% RH, 1 month
[15] = No. 3 Accelerated, 40° C./75% RH, 2 weeks
[16] = No. 3 Accelerated, 40° C./75% RH, 3 months
[17] = No. 3 Accelerated, 40° C./75% RH, 6 months
[18] = No. 5 Stress, 40° C./75% RH exposed, 1 month
[19] = No. 5 Stress, 40° C./75% RH exposed, 2 weeks
[20] = No. 5 Stress, 40° C./75% RH exposed, 3 months
[21] = No. 5 Stress, 40° C./75% RH exposed, 6 months
[22] = No. 7 Stress, 25° C./HIL/UVA Exposed, 2 weeks
[23] = No. 7 Stress, 25° C./HIL/UVA Exposed, 4 days
[24] = No. 7 Stress, 25° C./HIL/UVA protected, 2 weeks
[25] = No. 7 Stress, 25° C./HIL/UVA protected, 4 days

CS(=O)(=O)O.C[C@@H](C(=O)Nc1ccc(Cl)cc1)[C@H]1CC[C@@H](c2ccnc3ccc(F)cc32)CC1 [Compound 1 MSA Salt Form 1, (R)-N-(4-chlorophenyl)-2-((1S,4S)-4-(6-fluoroquinolin-4-yl)cyclohexyl)propanamide methanesulfonate]
Solubility ([1]; pH 0.49): 24 µg/mL | Solubility ([1]; pH 1.01): 73 µg/mL | Solubility ([1]; pH 2.46): 147 µg/mL | Solubility ([1]; pH 2.7): 85 µg/mL | Solubility ([1]; pH 3.14): 18 µg/mL | Solubility ([1]; pH 3.61): 3 µg/mL | Solubility ([1]; pH 4.53): 1 µg/mL | Solubility ([1]; pH 6.82): 1 µg/mL | Solubility ([1]; pH 7): 96 µg/mL | Solubility ([1]; pH 9.68): 2 µg/mL | Bulk density ([2]; for sample with D90 of 22.3 μm): 0.193 g/mL | D50 ([2]; range from 0202 Jet Mill): 6.2-9.8 μm | Surface area ([2]; range from 0202 Jet Mill): 2.08-3.63 m^2/g | D90 ([2]; range from 0202 Jet Mill, laser-light scattering): 12.7-24.0 μm | rate and extent of dissolution compared to an amorphous form or HCl salts (amorphous and crystalline) ([3]; Example 14, FIG. 7, both FeSSiF and FaSSiF, simulated 150 mg human dose): faster rate and extent of dissolution | rate and extent of dissolution compared to Compound 1 free base (amorphous) ([3]; Example 14, FIG. 8, FaSSIF and FeSSIF at 0.2 mg/mL): faster rate and extent of dissolution | rate of dissolution ([3]; Example 16, FeSSIF): 38 µg/mL/min | AUC (Mean) ([3]; FaSSIF (pH 6.5)): 14988.073 µg·min/mL | Dissolution Rate (Mean) ([3]; FaSSIF (pH 6.5)): 2.460 µg/mL/min | AUC (Mean) ([3]; FeSSIF (pH 5)): 46410.396 µg·min/mL | Dissolution Rate (Mean) ([3]; FeSSIF (pH 5)): 38.850 µg/mL/min | Peak Solubility (Mean) ([3]; pH 5): 271.564 µg/mL | Peak Solubility (Mean) ([3]; pH 6.5): 100.877 µg/mL | oral bioavailability [4]: increased oral bioavailability | photostability study conclusion [5]: does not need to be protected from light | Assay “as is” [5, 6]: 81.9% | Assay “corrected” [5, 6]: 100.5% | Assay “as is” [5, 7]: 82.4% | Assay “corrected” [5, 7]: 101.1% | Assay “as is” [5, 8]: 81.2% | Assay “corrected” [5, 8]: 99.6% | Assay “as is” [5, 9]: 81.7% | Assay “corrected” [5, 9]: 100.5% | Assay “as is” [5, 10]: 82.1% | Assay “corrected” [5, 10]: 100.8% | Assay “as is” [5, 11]: 81.7% | Assay “corrected” [5, 11]: 100.4% | Assay “as is” [5, 12]: 81.2% | Assay “corrected” [5, 12]: 99.7% | Assay “as is” [5, 13]: 81.1% | Assay “corrected” [5, 13]: 99.8% | Assay “as is” [5, 14]: 82.3% | Assay “corrected” [5, 14]: 101.0% | Assay “as is” [5, 15]: 80.7% | Assay “corrected” [5, 15]: 99.1% | Assay “as is” [5, 16]: 81.5% | Assay “corrected” [5, 16]: 100.1% | Assay “as is” [5, 17]: 81.8% | Assay “corrected” [5, 17]: 100.4% | Assay “as is” ([5]; No. 4 Stress, −20° C., 1 month): 82.4% | Assay “corrected” ([5]; No. 4 Stress, −20° C., 1 month): 101.1% | Assay “as is” [5, 18]: 81.6% | Assay “corrected” [5, 18]: 100.3% | Assay “as is” [5, 19]: 80.9% | Assay “corrected” [5, 19]: 99.3% | Assay “as is” [5, 20]: 81.4% | Assay “corrected” [5, 20]: 99.9% | Assay “as is” [5, 21]: 80.3% | Assay “corrected” [5, 21]: 98.6% | Assay “as is” ([5]; No. 6 Stress, 50° C., 1 month): 82.0% | Assay “corrected” ([5]; No. 6 Stress, 50° C., 1 month): 100.7% | Assay “as is” ([5]; No. 6 Stress, 50° C., 2 weeks): 80.8% | Assay “corrected” ([5]; No. 6 Stress, 50° C., 2 weeks): 99.2% | Assay “as is” ([5]; No. 6 Stress, 50° C., 3 months): 82.2% | Assay “corrected” ([5]; No. 6 Stress, 50° C., 3 months): 100.9% | Assay “as is” [5, 22]: 78.7% | Assay “corrected” [5, 22]: 96.8% | Assay “as is” [5, 23]: 80.8% | Assay “corrected” [5, 23]: 99.2% | Assay “as is” [5, 24]: 80.4% | Assay “corrected” [5, 24]: 98.7% | Assay “as is” [5, 25]: 81.1% | Assay “corrected” [5, 25]: 99.5% | storage time remained stable ([5]; accelerated condition of 40° C./75% RH): ≥ 6 months | changes in XRD pattern ([5]; after any of the study numbers): No changes | change in total impurities on light exposure ([5]; approximately 3.5 times the minimum ICH exposure): slight increase | Color and appearance (white or off-white powder or powder with lumps) ([5]; during the studies): maintained | 4-chloroaniline (impurity) ([5]; initial): 0.09% | enantiomeric impurity of Compound 1 ([5]; initial): < 0.05% | total impurities ([5]; initial): 0.57% | water content ([5]; initial): < 0.1 % w/w | Assay “as is” ([5]; initial (average of 2 results)): 79.0% and 79.0^1% | Assay “corrected” ([5]; initial (average of 2 results)): 97.0% and 97.0^1% | storage time remained stable ([5]; long-term conditions of 5° C. and 25° C./60% relative humidity (RH)): at least 12 months | changes on light exposure ([5]; minimum ICH Q1B exposure): Essentially no changes | storage time remained stable ([5]; stress condition of 50° C.): ≥ 3 months | total impurities ([5]; study number 3): 0.48% | total impurities ([5]; study number 6): 0.50% | changes in assay “as is” or “corrected” from initial ([5]; study numbers 1, 2, 3, and 5): Essentially no changes | changes in enantiomeric impurity ([5]; study numbers 1 and 2): No changes | changes in water content ([5]; study numbers 1 and 2): Essentially no changes | 4-chloroaniline (impurity) ([5]; study numbers 3 and 6 (both conditions)): < 0.05% | changes in total impurities from initial ([5]; study numbers 4, 1, 2, and 3): Essentially no changes
